Experimental data from patent US20240246992A1, “MACROCYCLIC LRRK2 KINASE INHIBITORS” (LES LABORATOIRES SERVIER, priority 2021, published 2024).

Target: human recombinant LRRK2 protein (Homo sapiens, UniProt Q5S007)
Assay: LRRK2 kinase activity assay (ADP-Glo, LRRKtide peptide)
Type: biochemical
Details: human recombinant LRRK2 wt, LRRKtide peptide and ATP, 1 h at 37° C.
Procedure: The inhibition of LRRK2 kinase was assessed using human recombinant LRRK2 protein in an in vitro peptide-based kinase assay.
LRRK2 Kinase reactions were carried out in 384-well white polystyrene plates in a final volume of 6 μl using ADP-Glo™ Kinase Assay kit (Promega Corp.). Compound and substrates (LRRKtide peptide and ATP) in assay buffer were first dispensed in wells. Kinase reaction was then started by the addition of human recombinant LRRK2 protein. After 1 h-incubation at 37° C., the enzymatic reactions was stopped by the addition of 6 μl of ADP-Glo Reagent-1 and an additional 40-minutes incubation at 23° C. (residual ATP depletion). A final 30-minutes incubation after 12 μL reagent-2 addition (ADP to ATP conversion and luciferin/luciferase reaction) was performed before luminescent signal acquisition (EnVision™ multimode plate reader—PerkinElmer, Inc.). Data from 10 individual concentrations of tested compounds (N=2) were fitted (XLfit™—ID Business Solutions Ltd) to deliver IC50s (compound concentration leading to 50% inhibition of reference enzymatic activity).
The compounds are dissolved to 5 mM in DMSO. When needed, solutions are sonicated in a bath sonicator.
Table 2 provides the pIC50 values of the compounds according to the invention, obtained using the above mentioned kinase assay. Activities are represented as +++, ++ and +, having the following meanings: • «+++» means an IC50<10 nM • «++» means an IC50<100 nM • «+» means an IC50<1 μM • «−» means an IC50>1 μM

Sequence of human recombinant LRRK2 protein (Q5S007 whole entry): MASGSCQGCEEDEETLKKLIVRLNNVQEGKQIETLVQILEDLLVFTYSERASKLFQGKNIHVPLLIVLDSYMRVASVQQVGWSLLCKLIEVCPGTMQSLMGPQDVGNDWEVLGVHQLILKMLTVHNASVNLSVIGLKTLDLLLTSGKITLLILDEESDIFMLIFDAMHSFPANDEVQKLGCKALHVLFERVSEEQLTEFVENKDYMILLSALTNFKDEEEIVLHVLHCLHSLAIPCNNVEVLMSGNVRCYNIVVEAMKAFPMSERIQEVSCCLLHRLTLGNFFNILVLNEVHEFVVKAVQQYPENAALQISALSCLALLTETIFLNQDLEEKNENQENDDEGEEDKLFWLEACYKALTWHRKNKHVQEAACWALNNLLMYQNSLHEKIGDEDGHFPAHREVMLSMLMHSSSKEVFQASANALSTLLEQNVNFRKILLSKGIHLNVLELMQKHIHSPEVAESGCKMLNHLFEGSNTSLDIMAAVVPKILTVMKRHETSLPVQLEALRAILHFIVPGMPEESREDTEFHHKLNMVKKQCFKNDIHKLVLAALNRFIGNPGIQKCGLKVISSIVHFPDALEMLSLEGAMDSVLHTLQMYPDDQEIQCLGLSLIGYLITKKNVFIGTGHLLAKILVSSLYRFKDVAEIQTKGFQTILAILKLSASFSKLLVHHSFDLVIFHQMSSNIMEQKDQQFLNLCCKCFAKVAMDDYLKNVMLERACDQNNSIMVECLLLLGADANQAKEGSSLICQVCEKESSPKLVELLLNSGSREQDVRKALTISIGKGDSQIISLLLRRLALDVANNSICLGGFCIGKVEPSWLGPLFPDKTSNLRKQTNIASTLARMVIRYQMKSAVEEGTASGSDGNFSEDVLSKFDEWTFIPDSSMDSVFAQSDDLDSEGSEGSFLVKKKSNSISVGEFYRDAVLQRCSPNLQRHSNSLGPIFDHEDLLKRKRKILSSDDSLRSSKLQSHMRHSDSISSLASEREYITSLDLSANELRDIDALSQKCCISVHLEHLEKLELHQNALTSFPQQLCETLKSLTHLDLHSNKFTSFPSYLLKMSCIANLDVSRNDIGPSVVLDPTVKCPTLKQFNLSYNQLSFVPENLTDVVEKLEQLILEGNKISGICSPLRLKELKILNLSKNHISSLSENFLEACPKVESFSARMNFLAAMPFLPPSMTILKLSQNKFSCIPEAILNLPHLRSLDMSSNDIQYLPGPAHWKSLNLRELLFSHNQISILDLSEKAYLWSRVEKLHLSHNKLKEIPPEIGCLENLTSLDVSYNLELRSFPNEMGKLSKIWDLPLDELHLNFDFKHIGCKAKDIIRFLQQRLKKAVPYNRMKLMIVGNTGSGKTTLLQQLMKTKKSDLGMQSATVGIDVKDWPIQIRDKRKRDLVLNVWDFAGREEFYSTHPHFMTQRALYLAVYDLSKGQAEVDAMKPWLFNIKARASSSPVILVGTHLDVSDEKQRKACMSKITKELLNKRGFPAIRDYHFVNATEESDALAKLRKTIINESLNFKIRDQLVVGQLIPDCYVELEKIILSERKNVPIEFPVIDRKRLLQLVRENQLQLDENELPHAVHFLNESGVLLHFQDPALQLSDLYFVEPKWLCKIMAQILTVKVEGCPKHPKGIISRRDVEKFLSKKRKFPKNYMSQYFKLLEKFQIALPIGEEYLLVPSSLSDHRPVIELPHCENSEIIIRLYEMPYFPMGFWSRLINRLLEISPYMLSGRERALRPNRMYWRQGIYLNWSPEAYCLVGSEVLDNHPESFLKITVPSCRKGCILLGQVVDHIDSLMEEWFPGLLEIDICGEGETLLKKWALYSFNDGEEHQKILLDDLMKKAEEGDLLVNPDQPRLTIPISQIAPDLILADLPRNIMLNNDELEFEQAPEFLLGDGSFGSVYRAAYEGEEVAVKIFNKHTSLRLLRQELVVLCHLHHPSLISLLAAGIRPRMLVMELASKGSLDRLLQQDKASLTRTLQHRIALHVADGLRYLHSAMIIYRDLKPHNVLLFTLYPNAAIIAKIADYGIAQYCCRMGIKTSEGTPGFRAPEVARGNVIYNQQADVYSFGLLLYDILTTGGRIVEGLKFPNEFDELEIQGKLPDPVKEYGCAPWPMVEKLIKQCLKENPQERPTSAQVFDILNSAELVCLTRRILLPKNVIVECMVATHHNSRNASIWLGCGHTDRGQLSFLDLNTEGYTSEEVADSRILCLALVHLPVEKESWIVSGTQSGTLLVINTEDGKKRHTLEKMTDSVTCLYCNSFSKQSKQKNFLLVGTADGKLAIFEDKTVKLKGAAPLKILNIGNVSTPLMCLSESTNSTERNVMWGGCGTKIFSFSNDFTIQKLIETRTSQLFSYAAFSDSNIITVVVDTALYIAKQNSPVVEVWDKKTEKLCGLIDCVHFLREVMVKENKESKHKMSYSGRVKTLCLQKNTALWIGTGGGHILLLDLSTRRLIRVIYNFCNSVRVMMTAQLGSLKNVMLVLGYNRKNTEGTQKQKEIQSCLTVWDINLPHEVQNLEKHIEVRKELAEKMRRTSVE

IC50	Compound
< 10 nM	COC1CN(c2cc3nc(n2)O[C@H](C)COCC[C@H](C)Oc2ccc4[nH]nc-3c4c2)C1 [Example 44, (8R,13S)-4-(3-methoxyazetidin-1-yl)-8,13-dimethyl-7,10,14-trioxa-5,19,20, 23-tetraazatetracyclo[13.5.2.1^2,6.0^18,21]tricosa-1(20),2(23),3,5,15(22),16, 18(21)-heptaene]
< 10 nM	C[C@@H]1CCOCCOc2nccc(n2)-c2n[nH]c3ccc(cc23)O1 [Example 45, (13R)-13-methyl-7,10,14-trioxa-5,19,20,23-tetraazatetracyclo[13.5.2.1^2,6.0^18,21]tricosa-1(20),2(23),3,5, 15(22),16,18(21)-heptaene]
< 100 nM	C[C@H]1CCOC[C@H](C)Oc2nccc(n2)-c2n[nH]c3ccc(cc23)O1 [Example 46, (8S,13S)-8,13-dimethyl-7,10,14-trioxa-5,19,20,23-tetraazatetracyclo [13.5.2.1^2,6.0^18,21]tricosa-1(20),2(23),3,5,15(22),16,18(21)-heptaene]
< 100 nM	C[C@H]1CCOC[C@H](C)Oc2cncc(n2)-c2n[nH]c3ccc(cc23)O1 [Example 47, (8S,13S)-8,13-dimethyl-7,10,14-trioxa-4,19,20,23-tetraazatetracyclo[13.5.2.1^2,6.0^18,21]tricosa-1(20),2(23),3,5,15(22),16,18(21)-heptaene]
< 10 nM	C[C@H]1CCOCCCc2csc(n2)-c2n[nH]c3ccc(cc23)O1 [Example 48, (12S)-12-methyl-9,13-dioxa-3-thia-18,19,22-triazatetracyclo[12.5.2.1^2,5.0^17,20]docosa-1(19),2(22),4,14(21),15,17(20)-hexaene]
< 10 nM	CO[C@@H]1CCN(c2cc3nc(n2)O[C@H](C)COCC[C@H](C)Oc2ccc4[nH]nc-3c4c2)C1 [Example 49, (8R,13S)-4-[(3R)-3-methoxypyrrolidin-1-yl]-8,13-dimethyl-7,10,14-trioxa-5,19,20,23-tetraazatetracyclo[13.5.2.1^2,6.0^18,21]tricosa-1(20),2(23),3,5, 15(22),16,18(21)-heptaene]
< 10 nM	C[C@@H]1COCCOCCn2cc(cn2)-c2n[nH]c3ccc(cc23)O1 [Example 50, (13R)-13-methyl-8,11,14-trioxa-4,5,19,20-tetraazatetracyclo[13.5.2.1^2,5.0^18,21]tricosa-1(20),2(23),3,15(22),16,18(21)-hexaene]
< 100 nM	C[C@H]1COc2cncc(n2)-c2n[nH]c3ccc(cc23)O[C@@H](C)CCO1 [Example 51, (9S,13S)-9,13-dimethyl-7,10,14-trioxa-4,19,20,23-tetraazatetracyclo[13.5.2.1^2,6.0^18,21]tricosa-1(20),2(23),3,5,15(22),16,18(21)-heptaene]
< 10 nM	C[C@H]1COCC[C@H](C)Oc2ccc3[nH]nc(c3c2)-c2cnn(c2)C1 [Example 52, (7R,12S)-7,12-dimethyl-9,13-dioxa-4,5,18,19-tetraazatetracyclo[12.5.2.1^2,5.0^17,20]docosa-1(19),2(22),3,14(21),15,17(20)-hexaene]
< 10 nM	C[C@@H]1CCOC[C@H](C)Oc2ccc3[nH]nc(c3c2)-c2ccnc(n2)O1 [Example 53, (8R,13S)-8,13-dimethyl-7,11,14-trioxa-5,19,20,23-tetraazatetracyclo[13.5.2.1^2,6.0^18,21]tricosa-1(20),2(23),3,5,15(22),16,18(21)-heptaene]
< 10 nM	C[C@H]1COc2ccc3[nH]nc(c3c2)-c2cnn(c2)CCOCCO1 [Example 54, (12S)-12-methyl-8,11,14-trioxa-4,5,19,20-tetraazatetracyclo[13.5.2.1^2,5.0^18,21]tricosa-1(20),2(23),3,15(22),16,18(21)-hexaene]
< 10 nM	C[C@@H]1COCCCOc2ccc3[nH]nc(c3c2)-c2ccnc(n2)O1 [Example 55, (8R)-8-methyl-7,10,14-trioxa-5,19,20,23-tetraazatetracyclo[13.5.2.1^2,6.0^18,21] tricosa-1(20),2(23),3,5,15(22),16,18(21)heptaene]
< 10 nM	C[C@@H]1CCOCCOc2cccc(n2)-c2n[nH]c3ccc(cc23)O1 [Example 56, (13R)-13-methyl-7,10,14-trioxa-19,20,23-triazatetracyclo[13.5.2.1^2,6.0^18,21] tricosa-1(20),2(23),3,5,15(22),16,18(21)-heptaene]
< 1000 nM	C[C@H]1CCOCCCn2cnc(c2)-c2n[nH]c3ccc(cc23)O1 [Example 57, (12S)-12-methyl-9,13-dioxa-3,5,18,19-tetraazatetracyclo [12.5.2.1^2,5.0^17,20] docosa-1(19),2(22),3,14(21),15,17(20)-hexaene]
< 100 nM	C[C@@H]1COc2cncc(n2)-c2n[nH]c3ccc(cc23)O[C@@H](C)CCO1 [Example 58, (9R,13S)-9,13-dimethyl-7,10,14-trioxa-4,19,20,23-tetraazatetracyclo[13.5.2.1^2,6.0^18,21]tricosa-1(20),2(23),3,5,15(22),16,18(21)-heptaene]
< 100 nM	C[C@H]1COc2nccc(n2)-c2n[nH]c3ccc(cc23)O[C@@H](C)CCO1 [Example 59, (9S,13S)-9,13-dimethyl-7,10,14-trioxa-5,19,20,23-tetraazatetracyclo [13.5.2.1^2,6.0^18,21]tricosa-1(20),2(23),3,5,15(22),16,18(21)-heptaene]
< 100 nM	C[C@@H]1COCCOc2ccc3[nH]nc(c3c2)-c2cnn(c2)CCO1 [Example 60, (9R)-9-methyl-8,11,14-trioxa-4,5,19,20-tetraazatetracyclo[13.5.2.1^2,5.0^18,21] tricosa-1(20),2(23),3,15(22),16,18(21)-hexaene]
< 100 nM	C[C@H]1COCCOc2ccc3[nH]nc(c3c2)-c2cnn(c2)CCO1 [Example 61, (9S)-9-methyl-8,11,14-trioxa-4,5,19,20-tetraazatetracyclo[13.5.2.1^2,5.0^18,21] tricosa-1(20),2(23),3,15(22),16,18(21)-hexaene]
< 100 nM	C[C@H]1CCOCCOCc2nc(cs2)-c2n[nH]c3ccc(cc23)O1 [Example 62, (13S)-13-methyl-7,10,14-trioxa-4-thia-19,20,23-triazatetracyclo[13.5.2.1^2,5.0^18,21]tricosa-1(20),2,5(23),15(22),16,18(21)-hexaene]
< 10 nM	c1cc2[nH]nc3c2cc1OCCOCCOCCn1cc-3cn1 [Example 63, 8,11,14-trioxa-4,5,19,20-tetraazatetracyclo[13.5.2.1^2,5.0^18,21]tricosa-1(20), 2(23),3,15(22),16,18(21)-hexaene]
< 10 nM	C[C@H]1COCCOCCOc2ccc3[nH]nc(c3c2)-c2cnn1c2 [Example 64, (6S)-6-methyl-8,11,14-trioxa-4,5,19,20-tetraazatetra cyclo[13.5.2.1^2,5.0^18,21]tricosa-1(20),2(23),3,15(22),16,18(21)-hexaene]
< 10 nM	C[C@@H]1COCCOCCOc2ccc3[nH]nc(c3c2)-c2cnn1c2 [Example 65, (6R)-6-methyl-8,11,14-trioxa-4,5,19,20-tetraazatetracyclo[13.5.2.1^2,5.0^18,21] tricosa-1(20),2(23),3,15(22),16,18(21)-hexaene]
< 10 nM	C[C@H]1CCOCCOCC2=NC=C(S2)c2n[nH]c3ccc(cc23)O1 [Example 66, (13S)-13-methyl-7,10,14-trioxa-23-thia-4,19,20-triazatetracyclo[13.5.2.1^2,5.0^18,21]tricosa-1(20),2,4,15(22),16,18(21)-hexaene]
< 10 nM	C[C@@H]1COc2ccc3[nH]nc(c3c2)-c2cnn(c2)CCOCCO1 [Example 67, (12R)-12-methyl-8,11,14-trioxa-4,5,19,20-tetraazatetracyclo[13.5.2.1^2,5.0^18,21]tricosa-1(20),2(23),3,15(22),16,18(21)-hexaene]
< 100 nM	c1ncc2cc1CCOCCOCCOc1ccc3[nH]nc-2c3c1 [Example 68, 9,12,15-trioxa-4,20,21-triazatetracyclo[14.5.2.1^2,6.0^19,22]tetracosa-1(21), 2(24),3,5,16(23),17,19(22)-heptaene]
< 100 nM	C[C@H]1COCCOCCc2cncc(c2)-c2n[nH]c3ccc(cc23)O1 [Example 69, (14S)-14-methyl-9,12,15-trioxa-4,20,21-triazatetracyclo[14.5.2.1^2,6.0^19,22] tetracosa-1(21),2(24),3,5,16(23),17,19(22)-heptaene]
< 100 nM	C[C@@H]1COCCn2cc(cn2)-c2n[nH]c3ccc(cc23)OCCO1 [Example 70, (10R)-10-methyl-8,11,14-trioxa-4,5,19,20-tetraazatetracyclo[13.5.2.1^2,5.0^18,21]tricosa-1(20),2(23),3,15(22),16,18(21)-hexaene]
< 100 nM	C[C@@H]1COCCOCCn2ncc(n2)-c2n[nH]c3ccc(cc23)O1 [Example 71, (13R)-13-methyl-8,11,14-trioxa-4,5,19,20,23-pentaazatetracyclo[13.5.2.1^2,5.0^18,21]tricosa-1(20),2(23),3,15(22),16,18(21)-hexaene]
< 10 nM	C[C@H]1COCCOCCn2cc(cc2C#N)-c2n[nH]c3ccc(cc23)O1 [Example 72, (13S)-13-methyl-8,11,14-trioxa-5,19,20-triazatetracyclo[13.5.2.1^2,5.0^18,21] tricosa-1(20),2(23),3,15(22),16,18(21)-hexaene-4-carbonitrile]
